Assay results published in US7569567B2, “3-Heteroaryl-3,5-dihydro-4-oxo-4H-pyridazino[4,5-B]indole-1-carboxamide derivatives, their preparation and therapeutic use” (sanofi-aventis, priority 2001, dated 2009).

First: Cn1c2cc(Cl)ccc2c2c(C(=O)N3CCCC3)nn(-c3ccncc3)c(=O)c21 [Compound 27, 1-[[7-chloro-5-methyl-3-(pyridin-4-yl)-4-oxo-3,5-dihydro-4H-pyridazino[4,5-b]indol-1-yl]carbonyl]-pyrrolidine]
Second: Cn1c2cc(Cl)ccc2c2c(C(=O)N3CCCCC3)nn(-c3ccncc3)c(=O)c21 [Compound 34, 1-[[7-chloro-5-methyl-3-(pyridin-4-yl)-4-oxo-3,5-dihydro-4H-pyridazino[4,5-b]indol-1-yl]carbonyl]-piperidine]
The melting point of the first is lower: 236 to 237 °C for the first, 242 to 243 °C for the second.

First: Cn1c2cc(Cl)ccc2c2c(C(N)=O)nn(-c3ccncc3)c(=O)c21 [Compound 29, 7-chloro-5-methyl-4-oxo-3-(pyridin-4-yl)-3,5-dihydro-4H-pyridazino[4,5-b]indole-1-carboxamide]
Second: CNC(=O)c1nn(-c2ccncc2)c(=O)c2c1c1ccc(Cl)cc1n2C [Compound 28, 7-chloro-N,5-dimethyl-4-oxo-3-(pyridin-4-yl)-3,5-dihydro-4H-pyridazino[4,5-b]indole-1-carboxamide]
The melting point of the first is higher: 341 to 346 °C for the first, 321 to 323 °C for the second.

First: CN1CCN(C(=O)c2nn(-c3cccnc3)c(=O)c3c2c2ccc(Cl)cc2n3C)CC1.Cl
Second: CN1CCN(C(=O)c2nn(-c3cccnc3)c(=O)c3c2c2ccc(F)cc2n3C)CC1.Cl
The melting point of the first is lower: 267 to 268 °C for the first, 269 to 273 °C for the second.

First: COc1ccnc(-n2nc(C(=O)N(C)C)c3c4ccc(Cl)cc4n(C)c3c2=O)c1 [Compound 30, 7-chloro-N,N,5-trimethyl-4-oxo-3-(4-methoxypyridin-2-yl)-3,5-dihydro-4H-pyridazino[4,5-b]indole-1-carboxamide]
Second: COc1cc(-n2nc(C(=O)N(C)C)c3c4ccc(Cl)cc4n(C)c3c2=O)ccn1 [Compound 38, 7-chloro-3-(2-methoxypyridin-4-yl)-N,N,5-trimethyl-4-oxo-3,5-dihydro-4H-pyridazino[4,5-b]indole-1-carboxamide]
The melting point of the first is higher: 243 to 244 °C for the first, 237 to 238 °C for the second.

Compared with `CN(C)C(=O)c1nn(-c2ccncc2)c(=O)c2c1c1ccc(Cl)cc1n2C` [Compound 13, 7-chloro-N,N,5-trimethyl-4-oxo-3-(pyridin-4-yl)-3,5-dihydro-4H-pyridazino[4,5-b]indole-1-carboxamide], `CN(C)C(=O)c1nn(-c2ccncc2)c(=O)c2c1c1ccc(Cl)cc1n2C.Cl` is lower in melting point: 276 to 278 °C for the first, 263 to 265 °C for the second.

First: Cc1ccc(-n2nc(C(=O)N(C)C)c3c4ccc(Cl)cc4n(C)c3c2=O)nn1 [Compound 21, 7-chloro-N,N,5-trimethyl-4-oxo-3-(6-methyl-pyridazin-3-yl)-3,5-dihydro-4H-pyridazino[4,5-b]indole-1-carboxamide]
Second: Cc1ccc(-n2nc(C(=O)N(C)C)c3c4ccc(Cl)cc4n(C)c3c2=O)nc1 [Compound 15, 7-chloro-N,N,5-trimethyl-4-oxo-3-(5-methylpyridin-2-yl)-3,5-dihydro-4H-pyridazino[4,5-b]indole-1-carboxamide]
The melting point of the first is higher: 238 to 239 °C for the first, 222 to 224 °C for the second.

First: CN(C)C(=O)c1nn(-c2ccccn2)c(=O)c2c1c1ccc(F)cc1n2C [Compound 1, 7-fluoro-N,N,5-trimethyl-4-oxo-3-(pyridin-2-yl)-3,5-dihydro-4H-pyridazino[4,5-b]indole-1-carboxamide]
Second: CN(C)C(=O)c1nn(-c2ccccn2)c(=O)c2c1c1ccc(Cl)cc1n2C [Compound 11, 7-chloro-N,N,5-trimethyl-4-oxo-3-(pyridin-2-yl)-3,5-dihydro-4H-pyridazino[4,5-b]indole-1-carboxamide]
The melting point of the first is lower: 199 to 200 °C for the first, 210 to 211 °C for the second.

First: CN(C)C(=O)c1nn(-c2cnccn2)c(=O)c2c1c1ccc(Cl)cc1n2C [Compound 24, 7-chloro-N,N,5-trimethyl-4-oxo-3-(pyrazin-2-yl)-3,5-dihydro-4H-pyridazino[4,5-b]indole-1-carboxamide]
Second: CN(C)C(=O)c1nn(-c2cncnc2)c(=O)c2c1c1ccc(Cl)cc1n2C [Compound 22, 7-chloro-N,N,5-trimethyl-4-oxo-3-(pyrimidin-5-yl)-3,5-dihydro-4H-pyridazino[4,5-b]indole-1-carboxamide]
The melting point of the first is lower: 231 to 232 °C for the first, 251 to 252 °C for the second.

Compared with `CN(C)C(=O)c1nn(-c2cccnc2)c(=O)c2c1c1ccc(F)cc1n2C` [Compound 2, 7-fluoro-N,N,5-trimethyl-4-oxo-3-(pyridin-3-yl)-3,5-dihydro-4H-pyridazino[4,5-b]indole-1-carboxamide], `CN(C)C(=O)c1nn(-c2cccnc2)c(=O)c2c1c1ccc(Cl)cc1n2C.Cl` is higher in melting point: 220 to 221 °C for the first, 228 to 230 °C for the second.

First: Cl.Cn1c2cc(Cl)ccc2c2c(C(=O)N3CCCC3)nn(-c3cccnc3)c(=O)c21
Second: Cn1c2cc(F)ccc2c2c(C(=O)N3CCCC3)nn(-c3cccnc3)c(=O)c21 [Compound 8, 1-[[7-fluoro-5-methyl-3-(pyridin-3-yl)-4-oxo-3,5-dihydro-4H-pyridazino[4,5-b]indol-1-yl]carbonyl]-pyrrolidine]
The melting point of the first is higher: 232 to 234 °C for the first, 220 to 221 °C for the second.

First: Cc1cc(-n2nc(C(=O)N(C)C)c3c4ccc(Cl)cc4n(C)c3c2=O)ccn1 [Compound 35, 7-chloro-N,N,5-trimethyl-4-oxo-3-(2-methylpyridin-4-yl)-3,5-dihydro-4H-pyridazino[4,5-b]indole-1-carboxamide]
Second: Cc1ccc(-n2nc(C(=O)N(C)C)c3c4ccc(Cl)cc4n(C)c3c2=O)cn1 [Compound 17, 7-chloro-N,N,5-trimethyl-4-oxo-3-(2-methylpyridin-5-yl)-3,5-dihydro-4H-pyridazino[4,5-b]indole-1-carboxamide]
The melting point of the first is higher: 267 to 269 °C for the first, 214 to 216 °C for the second.

Compared with `CCN(C)C(=O)c1nn(-c2ccncc2)c(=O)c2c1c1ccc(Cl)cc1n2C` [Compound 33, 7-chloro-N-ethyl-N,5-dimethyl-4-oxo-3-(pyridin-4-yl)-3,5-dihydro-4H-pyridazino[4,5-b]indole-1-carboxamide], `CN(C)C(=O)c1nn(-c2ccncc2)c(=O)c2c1c1ccc(F)cc1n2C.Cl` is higher in melting point: 211 to 213 °C for the first, 266 to 271 °C for the second.

Compared with `Cn1c2cc(F)ccc2c2c(C(=O)N3CCCC3)nn(-c3ncccn3)c(=O)c21` [Compound 6, 1-[[7-fluoro-5-methyl-3-(pyrimidin-2-yl)-4-oxo-3,5-dihydro-4H-pyridazino[4,5-b]indol-1-yl]carbonyl]-pyrrolidine], `Cc1cc(-n2nc(C(=O)N3CCCC3)c3c4ccc(Cl)cc4n(C)c3c2=O)ccn1` [Compound 36, 1-[[7-chloro-5-methyl-3-(2-methylpyridin-4-yl)-4-oxo-3,5-dihydro-4H-pyridazino[4,5-b]indol-1-yl]carbonyl]pyrrolidine] is higher in melting point: 238 to 239 °C for the first, 246 to 247 °C for the second.

Compared with `CN(C)C(=O)c1nn(-c2ncccn2)c(=O)c2c1c1ccc(Cl)cc1n2C` [Compound 23, 7-chloro-N,N,5-trimethyl-4-oxo-3-(pyrimidin-2-yl)-3,5-dihydro-4H-pyridazino[4,5-b]indole-1-carboxamide], `CN(C)C(=O)c1nn(-c2ccc(Br)nc2)c(=O)c2c1c1ccc(Cl)cc1n2C` [Compound 18, 7-chloro-N,N,5-trimethyl-4-oxo-3-(2-bromopyridin-5-yl)-3,5-dihydro-4H-pyridazino[4,5-b]indole-1-carboxamide] is lower in melting point: 272 to 274 °C for the first, 250 to 252 °C for the second.

First: COc1ccc(-n2nc(C(=O)N(C)C)c3c4ccc(F)cc4n(C)c3c2=O)cn1 [Compound 4, 7-fluoro-N,N,5-trimethyl-4-oxo-3-(2-methoxypyridin-5-yl)-3,5-dihydro-4H-pyridazino[4,5-b]indole-1-carboxamide]
Second: COc1ccc(-n2nc(C(=O)N(C)C)c3c4ccc(Cl)cc4n(C)c3c2=O)cn1 [Compound 16, 7-chloro-N,N,5-trimethyl-4-oxo-3-(2-methoxypyridin-5-yl)-3,5-dihydro-4H-pyridazino[4,5-b]indole-1-carboxamide]
The melting point of the first is lower: 225 to 226 °C for the first, 236 to 237 °C for the second.

First: CN(C)C(=O)c1nn(-c2cnc3ccccc3c2)c(=O)c2c1c1ccc(Cl)cc1n2C [Compound 19, 7-chloro-N,N,5-trimethyl-4-oxo-3-(quinolin-3-yl)-3,5-dihydro-4H-pyridazino[4,5-b]indole-1-carboxamide]
Second: CN(C)C(=O)c1nn(-c2cnc3ccccc3c2)c(=O)c2c1c1ccc(F)cc1n2C [Compound 5, 7-fluoro-N,N,5-trimethyl-4-oxo-3-(quinolin-3-yl)-3,5-dihydro-4H-pyridazino[4,5-b]indole-1-carboxamide]
The melting point of the first is higher: 271 to 272 °C for the first, 237 to 238 °C for the second.

First: CNC(=O)c1nn(-c2cccnc2)c(=O)c2c1c1ccc(F)cc1n2C [Compound 9, 7-fluoro-N,5-dimethyl-4-oxo-3-(pyridin-3-yl)-3,5-dihydro-4H-pyridazino[4,5-b]indole-1-carboxamide]
Second: Cn1c2cc(F)ccc2c2c(C(N)=O)nn(-c3cccnc3)c(=O)c21 [Compound 10, 7-fluoro-5-methyl-4-oxo-3-(pyridin-3-yl)-3,5-dihydro-4H-pyridazino[4,5-b]indole-1-carboxamide]
The melting point of the first is lower: 270 to 272 °C for the first, 319 to 320 °C for the second.

First: CN(C)C(=O)c1nn(-c2cncc3ccccc23)c(=O)c2c1c1ccc(Cl)cc1n2C [Compound 20, 7-chloro-N,N,5-trimethyl-4-oxo-3-(isoquinolin-4-yl)-3,5-dihydro-4H-pyridazino[4,5-b]indole-1-carboxamide]
Second: CN(C)C(=O)c1nn(-c2cc[n+]([O-])cc2)c(=O)c2c1c1ccc(Cl)cc1n2C [Compound 37, 7-chloro-N,N,5-trimethyl-3-(1-oxidopyridin-4-yl)-4-oxo-3,5-dihydro-4H-pyridazino[4,5-b]indole-1-carboxamide]
The melting point of the first is lower: 189 to 191 °C for the first, 301 to 304 °C for the second.
